Results taken from ChEMBL document CHEMBL1811859, “Second-generation sulfonamide inhibitors of D-glutamic acid-adding enzyme: activity optimisation with conformationally rigid analogues of D-glutamic acid” (Eur J Med Chem, 2011).
Values after ≈ are worked out from the molar mass of the structure shown.

How the values were obtained:
Streptococcus pneumoniae [1] = test: Antimicrobial activity against Streptococcus pneumoniae D39 by broth dilution method; assay type: functional
Streptococcus pneumoniae [2] = test: Antimicrobial activity against Streptococcus pneumoniae ATCC 33400 by broth dilution method; assay type: functional
Streptococcus pneumoniae [3] = test: Antimicrobial activity against Streptococcus pneumoniae ATCC 49619 by broth dilution method; assay type: functional
Enterococcus hirae = test: Antimicrobial activity against Enterococcus hirae ATCC 9790 by broth dilution method; assay type: functional
Enterococcus faecium = test: Antimicrobial activity against Enterococcus faecium ATCC 19434 by broth dilution method; assay type: functional
Enterococcus faecalis [4] = test: Antimicrobial activity against Enterococcus faecalis ATCC 29212 by broth dilution method; assay type: functional
Enterococcus faecalis [5] = test: Antimicrobial activity against Enterococcus faecalis ATCC 19433 by broth dilution method; assay type: functional
Bacillus subtilis = test: Antimicrobial activity against Bacillus subtilis ATCC 6633 by broth dilution method; assay type: functional
Listeria monocytogenes = test: Antimicrobial activity against Listeria monocytogenes ATCC 14780 by broth dilution method; assay type: functional
Listeria innocua = test: Antimicrobial activity against Listeria innocua ATCC 33090 by broth dilution method; assay type: functional
Micrococcus luteus = test: Antimicrobial activity against Micrococcus luteus ATCC 9314 by broth dilution method; assay type: functional
Klebsiella pneumoniae = test: Antimicrobial activity against Klebsiella pneumoniae ATCC 13883 by broth dilution method; assay type: functional
Pseudomonas aeruginosa = test: Antimicrobial activity against Pseudomonas aeruginosa ATCC 27853 by broth dilution method; assay type: functional
Citrobacter freundii = test: Antimicrobial activity against Citrobacter freundii ATCC 8090 by broth dilution method; assay type: functional
Proteus mirabilis = test: Antimicrobial activity against Proteus mirabilis ATCC 29936 by broth dilution method; assay type: functional
Escherichia coli [6] = test: Antimicrobial activity against Escherichia coli ATCC 8739 by broth dilution method; assay type: functional
Escherichia coli [7] = test: Inhibition of Escherichia coli MurD ligase assessed as residual activity at 500 uM after 30 mins
[8] = Inhibition of Escherichia coli MurD ligase assessed as addition of D-[3H]glu to UDP-N-acetyl-muramoyl-L-alanine after 30 mins
[9] = tested on: Staphylococcus epidermidis; test: Antimicrobial activity against Staphylococcus epidermidis ATCC 12228 by broth dilution method; assay type: functional
Staphylococcus aureus [10] = test: Antimicrobial activity against Staphylococcus aureus ATCC 25923 by broth dilution method; assay type: functional
Staphylococcus aureus [11] = test: Antimicrobial activity against methicillin-resistant Staphylococcus aureus PL1 by broth dilution method; assay type: functional
Staphylococcus aureus [12] = test: Antimicrobial activity against methicillin-resistant Staphylococcus aureus ATCC 43300 by broth dilution method; assay type: functional
[13] = Inhibition of Escherichia coli MurD ligase after 10 mins using malachite green reagent by colorimetry
[14] = Inhibition of Escherichia coli MurD ligase assessed as addition of D-[3H]glu to UDP-N-acetyl-muramoyl-L-alanine
[15] = Inhibition of Escherichia coli MurD ligase by fluorimetric assay
[16] = Inhibition of Escherichia coli MurD ligase

| SMILES | MIC (Streptococcus pneumoniae [1]) | MIC (Streptococcus pneumoniae [2]) | MIC (Streptococcus pneumoniae [3]) | MIC (Enterococcus hirae) | MIC (Enterococcus faecium) | MIC (Enterococcus faecalis [4]) | MIC (Enterococcus faecalis [5]) | MIC (Bacillus subtilis) | MIC (Listeria monocytogenes) | MIC (Listeria innocua) | MIC (Micrococcus luteus) | MIC (Klebsiella pneumoniae) | MIC (Pseudomonas aeruginosa) | MIC (Citrobacter freundii) | MIC (Proteus mirabilis) | MIC (Escherichia coli [6]) | Activity (Escherichia coli [7]) | MIC [9] | MIC (Staphylococcus aureus [10]) | MIC (Staphylococcus aureus [11]) | other results |
| --- | --- | --- | --- | --- | --- | --- | --- | --- | --- | --- | --- | --- | --- | --- | --- | --- | --- | --- | --- | --- | --- |
| N#Cc1ccc(COc2ccc3cc(S(=O)(=O)Nc4ccc(O)cc4C(=O)O)ccc3c2)c(F)c1 | > 512 µg/mL | > 512 µg/mL | > 512 µg/mL | > 512 µg/mL | > 512 µg/mL | > 512 µg/mL | > 512 µg/mL | > 512 µg/mL | > 512 µg/mL | > 512 µg/mL | > 512 µg/mL | > 512 µg/mL | > 512 µg/mL | > 512 µg/mL | > 512 µg/mL | > 512 µg/mL | 3% | > 512 µg/mL | > 512 µg/mL | > 512 µg/mL | IC50 [8]: 46 µM; Ki [8]: 32 µM; MIC (Staphylococcus aureus [12]): > 512 µg/mL |
| C[C@@H]1NC(=O)[C@H](CO)NC(=O)CCCCCC[C@H](C(=O)O)CC1=O |  |  |  |  |  |  |  |  |  |  |  |  |  |  |  |  |  |  |  |  | IC50 [13]: 0.7 µM |
| CC(=O)N[C@H]1C(OP(=O)(O)O)O[C@H](CO)[C@@H](O)[C@@H]1O[C@H](C)C(=O)N[C@@H](C)P(=O)(O)CC(CCC(=O)O)C(=O)O (stereo not given in full) |  |  |  |  |  |  |  |  |  |  |  |  |  |  |  |  |  |  |  |  | IC50 [14]: 0.02 µM |
| Cc1ccc(C(=O)O)cc1NC(=O)CSc1nnc(N)s1 |  |  |  |  |  |  |  |  |  |  |  |  |  |  |  |  |  |  |  |  | IC50 [15]: 105 µM |
| O=C(N/N=C/c1ccc(O)c(O)c1O)c1n[nH]c2ccccc12 |  |  |  |  |  |  |  |  |  |  |  |  |  |  |  |  |  |  |  |  | IC50 [16]: 324 µM |
| CCCCOc1ccc2cc(S(=O)(=O)Nc3ccc(CC(=O)O)cc3)ccc2c1 | > 512 µg/mL | > 512 µg/mL | > 512 µg/mL | 512 µg/mL (≈ 1240 µM) | 512 µg/mL (≈ 1240 µM) | 256 µg/mL (≈ 619 µM) | 512 µg/mL (≈ 1240 µM) | 512 µg/mL (≈ 1240 µM) | > 512 µg/mL | > 512 µg/mL | 512 µg/mL (≈ 1240 µM) | > 512 µg/mL | > 512 µg/mL | > 512 µg/mL | > 512 µg/mL | > 512 µg/mL | 97% | 256 µg/mL (≈ 619 µM) | 256 µg/mL (≈ 619 µM) | 256 µg/mL (≈ 619 µM) | MIC (Staphylococcus aureus [12]): 256 µg/mL (≈ 619 µM) |
| CCCCOc1ccc2cc(S(=O)(=O)N[C@@H](CCC(=O)O)C(=O)O)ccc2c1 |  |  |  |  |  |  |  |  |  |  |  |  |  |  |  |  |  |  |  |  | IC50 [16]: 710 µM |
| N#Cc1ccc(COc2ccc3cc(S(=O)(=O)Nc4ccc(CC(=O)O)cc4)ccc3c2)c(F)c1 | 64 µg/mL (≈ 130 µM) | 32 µg/mL (≈ 65.2 µM) | 64 µg/mL (≈ 130 µM) | > 512 µg/mL | > 512 µg/mL | > 512 µg/mL | > 512 µg/mL | > 512 µg/mL | > 512 µg/mL | > 512 µg/mL | > 512 µg/mL | > 512 µg/mL | > 512 µg/mL | > 512 µg/mL | > 512 µg/mL | > 512 µg/mL | 64% | > 512 µg/mL | > 512 µg/mL | > 512 µg/mL | MIC (Staphylococcus aureus [12]): > 512 µg/mL |
